Paper PMC5520944 (Cell Death & Disease, 2017)
Counter-ions that a name gives are not always drawn.

How the values were obtained:
MEF = assay: cells; design: species or system L929sAhFas or MEF; protection from TNF-induced cell death, percentage PI-positive nuclei by high-content imaging; details: Mus musculus, mTNF + BV6, inhibition of induced cell death
Procedure: (c,d) HT-29 and Jurkat FADD−/− cells were pretreated for 1 h with DMSO, Nec-1 or Sorafenib (concentrations as indicated) and stimulated for 6 h with 30 ng/ml hTNF, 1 μM BV6 and 30 μM zVAD (HT-29) or stimulated for 10 h with 100 ng/ml hTNF (Jurkat FADD−/−). (a-d) Data were normalized to DMSO-treated control cells and represent the mean value±S.E.M. of three independent experiments. Toxic concentrations were removed from the analysis. L929sAhFas and MEF cells were stained with Hoechst and PI and percentage PI-positive nuclei was determined using high-content image analysis (BD pathway Bioimager). For HT-29 and Jurkat FADD−/− cells, cell death was determined by PI staining and flow cytometry. […] Cell death in AML cells was determined by PI staining and flow cytometry. […] Smac mimetic BV6[34] instead of TAK1i was used as a sensitizer for testing of mouse embryonic fibroblasts (MEF) and human cell lines. […] Since Sorafenib is used to treat AML,[27] we also included two AML cell lines to investigate whether it alters the sensitivity of these cells to necroptotic stimuli (BV6 in the presence of zVAD-fmk).[34]

Molm13 = assay: cells; design: species or system Jurkat FADD-/-, HT-29, MV4-11 or Molm13; protection from induced necroptosis, cell death by PI staining and flow cytometry; details: Homo sapiens, MOLM-13; BV6 + zVAD; inhibition of induced cell death
Procedure: Figure 2 Sorafenib inhibits TNF-induced RIPK1-dependent cell death in both murine and human cell lines and rescues AML cells from Smac mimetic-induced necroptosis. […] (c,d) HT-29 and Jurkat FADD−/− cells were pretreated for 1 h with DMSO, Nec-1 or Sorafenib (concentrations as indicated) and stimulated for 6 h with 30 ng/ml hTNF, 1 μM BV6 and 30 μM zVAD (HT-29) or stimulated for 10 h with 100 ng/ml hTNF (Jurkat FADD−/−). (a-d) Data were normalized to DMSO-treated control cells and represent the mean value±S.E.M. of three independent experiments. Toxic concentrations were removed from the analysis. L929sAhFas and MEF cells were stained with Hoechst and PI and percentage PI-positive nuclei was determined using high-content image analysis (BD pathway Bioimager). For HT-29 and Jurkat FADD−/− cells, cell death was determined by PI staining and flow cytometry. […] Cell death in AML cells was determined by PI staining and flow cytometry. Mean and S.D. of three independent experiments performed in triplicate are shown Supplementary materials and methods Immunoblotting. After treatments, cells were washed twice with PBS and lysed with Laemmli buffer (2x) directly or with NP-40 lysis buffer (150 mM NaCl, 1% NP-40, 10% glycerol, 10 mM Tris-HCl pH 8) supplemented with EDTA-free protease inhibitor cocktail tablets (Roche Diagnostics, Basel, Switzerland, #11873580001) and phosphatase inhibitor cocktail tablets (Roche Diagnostics, #04906837001). After lysis with NP-40 lysis buffer, lysates were kept 10 minutes on ice and centrifugated in a microcentrifuge (10 min, 13.000 rpm, 4°C). Supernatant was used for SDS-PAGE and immunoblotting. FACS analysis. FACS analysis was used to measure dying HT-29, Jurkat FADD-/- and AML cells. Treated HT-29 cells were harvested, washed with PBS and incubated with Annexin V binding buffer (BD Biosciences, 556454) containing 7-AAD and Annexin V-FITC for 15 min according to the manufacturer’s protocol. FACSCalibur^TM Flow Cytometer (BD Biosciences) and CellQuest Pro software were used to perform experiments and analyze data respectively.

CNC(=O)c1cc(Oc2ccc(NC(=O)Nc3ccc(Cl)c(C(F)(F)F)c3)cc2)ccn1 [Sorafenib tosylate]
IC50 (MEF): 2.2 ± 0.47 µM | IC50 (Molm13): ≤ 0.03 µM
